{"source": "patent US12391660B2", "about": "“Heteroaromatic acetamide derivative, and preparation and use thereof” (Hangzhou Westan Pharmaceutical Technology Co., Ltd, priority 2019, dated 2025)", "key": {"mouse asthma model": {"system": "mouse asthma model", "conditions": "cited from earlier work"}, "guinea pigs": {"system": "guinea pigs", "conditions": "cough induced by acrolein, crotonaldehyde, cinnamaldehyde; cited from earlier work"}, "mouse model of COPD": {"system": "mouse model of COPD", "conditions": "pretreatment of mice, cigarette smoke; cited from earlier work"}, "asthmatic rats": {"system": "asthmatic rats", "assay": "Ovalbumin-induced asthma rat model (HE staining, lung tissue inflammation area, airway inflammation score)", "type": "in vivo, SD rats", "conditions": "compared with the model group", "from_the_text": "4. Effects of Compounds on Ovalbumin-Induced Asthma in Mouse and Rat Models\nSPF-grade SD male rats (purchased from Zhejiang Academy of Medical Sciences, license number SCXK (Zhejiang) 2019-0002) with a body weight of 160-180 g; and SPF-grade female BABL/c mice (purchased from Zhejiang Weitong Lihua Experimental Animals Technology Co., Ltd., license number SCXK (Zhejiang) 2019-0001) with a body weight of 16-18 g were used. The above animals were raised by the Experimental Animal Center of Zhejiang Academy of Traditional Chinese Medicine.\nFormulation of compound solution: compound was vortexed in a solvent system, dissolved by ultrasound, and prepared into a solution at a corresponding concentration, which was prepared just before use (the solvent system was composed of 5% Solutol HS 15, 5% DMSO and 90% physiological saline).\nBABL/c mice or SD rats were randomly divided into: normal control group, model control group, dexamethasone group (0.72 mg/kg), and the respective test compound groups (one group for each dose), 10 mice in each group; 6 rats in each group.\nSensitization of rats: On Day 1 and Day 8, the model control group and the respective drug administration groups were intraperitoneally injected with 1 ml of 10% OVA sensitizing solution, and the normal group was intraperitoneally injected with an equal volume of normal saline.\nRat: from Day 15, the dexamethasone group and the respective test compound groups were intraperitoneally injected, 20 minutes before challenge, with the corresponding drugs with an injection volume of 0.3 ml/100 g; the model control group was intraperitoneally injected, 20 minutes before challenge, with an equal volume of solvent system; and the normal control group was not treated. Administration was conducted for 7 consecutive days. […]\nThe rat was anesthetized with 10% urethane at 1.3 ml/100 g volume, and the left lung tissue was taken and fixed in 4% neutral formaldehyde, paraffin-embedded according to routine operation, sectioned for HE staining. […] NIS-Elements D 3.2 software was used to manually integrate and measure the total area of lung tissue sections and the inflammation area under all fields of view, the total areas under each field of view were accumulated, and the percentage of the cumulative area of inflammation in the total area was calculated, wherein the percentage of inflammation area=cumulative area of inflammation/total area×100%.\nAll data were expressed as mean±standard deviation (x±s), and the data were processed by SPSS 20.0 statistical software. […]"}}}
{"smiles": "Cn1c(=O)c2c(CC(=O)Nc3nc(-c4ccc(F)c(C(F)(F)F)c4F)cs3)csc2n(C)c1=O", "note": "[GRC17536]", "values": [{"measurement": "acidophilic leukocytes", "setting": "mouse asthma model", "result": "reduce"}, {"measurement": "mucus secretion and airway hyperreactivity", "setting": "mouse asthma model", "result": "inhibit"}]}
{"smiles": "CC(C)c1ccc(NC(=O)Cn2cnc3c2c(=O)n(C)c(=O)n3C)cc1", "note": "[HC-030031]", "values": [{"measurement": "cough response", "setting": "guinea pigs", "result": "significantly attenuate"}, {"measurement": "plasma protein extravasation induced by CS", "setting": "mouse model of COPD", "result": "protective effect"}]}
{"smiles": "C[C@@H]1C[C@H]2[C@@H]3CCC4=CC(=O)C=C[C@]4(C)[C@@]3(F)[C@@H](O)C[C@]2(C)[C@@]1(O)C(=O)CO", "note": "[dexamethasone, reference compound]", "values": [{"measurement": "lung tissue inflammation and inflammatory cell infiltration around the airway (HE x40)", "setting": "asthmatic rats", "result": "significant improvement"}]}
